Key:
Assay in all cases: relative viability (nuclei count vs DMSO), 5 days (fraction); higher = more cells survive
[1] = tested on: PC-14
Summary of the method: (§1)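 A single step with final 0.05% Triton X-100, 1% formaldehyde and 1 ug/ml Hoechst fixed the cells and stained nuclei 5 days after treatment. Lung cancer cell lines in 1536-well plates had been treated by pin tool the day after seeding with one drug alone or a fixed anchor-drug dose plus five library-drug doses (not always all listed) in √10 steps, and nuclei were counted on 4× images. Relative viability is the ratio of nuclei in treated wells to nuclei in vehicle wells, taken as the median of duplicate plates.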

[2] = tested on: LCLC-103H
Summary of the method: as §1

[3] = tested on: NCI-H1651
Summary of the method: as §1

[4] = tested on: NCI-H322M
Summary of the method: as §1

[5] = tested on: NCI-H2087
Summary of the method: as §1

[6] = tested on: LK-2
Summary of the method: as §1

[7] = tested on: NCI-H23
Summary of the method: as §1

[8] = tested on: H3255
Summary of the method: as §1

[9] = tested on: NCI-H1355
Summary of the method: as §1

[10] = tested on: A-427
Summary of the method: as §1

[11] = tested on: NCI-H661
Summary of the method: as §1

Question: How did the relative viability ([1]; first compound 6.325 µM) turn out when `COCC1(CO)C(=O)C2CCN1CC2` (stereo not given) [PRIMA-1MET] + Nc1nc2[nH]cc(CCc3ccc(C(=O)N[C@@H](CCC(=O)O)C(=O)O)cc3)c2c(=O)[nH]1 [Pemetrexed] (partner 0.2 µM) was run?
Answer: The relative viability was 0.148.

Question: What about the relative viability ([1]; first compound 20 µM) of the same molecule?
Answer: The relative viability was 0.0292.

Question: What about the relative viability ([2]; first compound 0.2 µM) of the same molecule?
Answer: The relative viability was 0.45.

Question: And the relative viability ([2]; first compound 0.6325 µM)?
Answer: The relative viability was 0.503.

Question: What about the relative viability ([2]; first compound 2 µM) of the same molecule?
Answer: Its relative viability is 0.459.

Question: And the relative viability ([2]; first compound 6.325 µM)?
Answer: The relative viability was 0.499.

Question: What about the relative viability ([2]; first compound 20 µM) of the same molecule?
Answer: The relative viability was 0.451.

Question: And the relative viability ([3]; first compound 0.2 µM)?
Answer: Its relative viability is 0.641.

Question: What about the relative viability ([3]; first compound 0.6325 µM) of the same molecule?
Answer: The relative viability was 0.192.

Question: And the relative viability ([3]; first compound 2 µM)?
Answer: The relative viability was 0.542.

Question: And the relative viability ([3]; first compound 6.325 µM)?
Answer: The relative viability was 0.605.

Question: What about the relative viability ([3]; first compound 20 µM) of the same molecule?
Answer: The relative viability was 0.651.

Question: And the relative viability ([4]; first compound 0.2 µM)?
Answer: The relative viability was 0.633.

Question: What about the relative viability ([4]; first compound 0.6325 µM) of the same molecule?
Answer: Its relative viability is 0.562.

Question: What about the relative viability ([4]; first compound 6.325 µM) of the same molecule?
Answer: The relative viability was 0.624.

Question: And the relative viability ([4]; first compound 20 µM)?
Answer: The relative viability was 0.0887.

Question: What about the relative viability ([5]; first compound 0.6325 µM) of the same molecule?
Answer: The relative viability was 0.639.

Question: And the relative viability ([5]; first compound 2 µM)?
Answer: Its relative viability is 0.68.

Question: What about the relative viability ([5]; first compound 6.325 µM) of the same molecule?
Answer: The relative viability was 0.61.

Question: And the relative viability ([5]; first compound 20 µM)?
Answer: The relative viability was 0.563.

Question: And the relative viability ([6]; first compound 0.2 µM)?
Answer: The relative viability was 0.271.

Question: And the relative viability ([6]; first compound 0.6325 µM)?
Answer: The relative viability was 0.0831.

Question: What about the relative viability ([6]; first compound 2 µM) of the same molecule?
Answer: Its relative viability is 0.221.

Question: And the relative viability ([6]; first compound 6.325 µM)?
Answer: The relative viability was 0.125.

Question: What about the relative viability ([6]; first compound 20 µM) of the same molecule?
Answer: Its relative viability is 0.0594.

Question: And the relative viability ([7]; first compound 0.2 µM)?
Answer: Its relative viability is 0.425.

Question: What about the relative viability ([7]; first compound 0.6325 µM) of the same molecule?
Answer: The relative viability was 0.595.

Question: What about the relative viability ([7]; first compound 2 µM) of the same molecule?
Answer: Its relative viability is 0.443.

Question: What about the relative viability ([7]; first compound 6.325 µM) of the same molecule?
Answer: Its relative viability is 0.579.

Question: And the relative viability ([7]; first compound 20 µM)?
Answer: Its relative viability is 0.175.

Question: And the relative viability ([8]; first compound 0.2 µM)?
Answer: The relative viability was 0.634.

Question: What about the relative viability ([8]; first compound 0.6325 µM) of the same molecule?
Answer: Its relative viability is 0.458.

Question: And the relative viability ([8]; first compound 2 µM)?
Answer: Its relative viability is 0.601.

Question: What about the relative viability ([8]; first compound 6.325 µM) of the same molecule?
Answer: The relative viability was 0.567.

Question: And the relative viability ([8]; first compound 20 µM)?
Answer: The relative viability was 0.534.

Question: What about the relative viability ([9]; first compound 0.2 µM) of the same molecule?
Answer: The relative viability was 1.02.

Question: What about the relative viability ([9]; first compound 0.6325 µM) of the same molecule?
Answer: The relative viability was 0.985.

Question: And the relative viability ([9]; first compound 2 µM)?
Answer: Its relative viability is 1.

Question: What about the relative viability ([9]; first compound 6.325 µM) of the same molecule?
Answer: Its relative viability is 1.01.

Question: What about the relative viability ([9]; first compound 20 µM) of the same molecule?
Answer: The relative viability was 1.04.

Question: And the relative viability ([10]; first compound 0.2 µM)?
Answer: The relative viability was 1.11.

Question: What about the relative viability ([10]; first compound 0.6325 µM) of the same molecule?
Answer: Its relative viability is 0.92.

Question: What about the relative viability ([10]; first compound 2 µM) of the same molecule?
Answer: The relative viability was 0.953.

Question: What about the relative viability ([10]; first compound 6.325 µM) of the same molecule?
Answer: The relative viability was 1.06.

Question: What about the relative viability ([10]; first compound 20 µM) of the same molecule?
Answer: Its relative viability is 0.962.

Question: What about the relative viability ([11]; first compound 0.2 µM) of the same molecule?
Answer: The relative viability was 0.954.

Question: What about the relative viability ([11]; first compound 0.6325 µM) of the same molecule?
Answer: Its relative viability is 0.849.

Question: What about the relative viability ([11]; first compound 2 µM) of the same molecule?
Answer: Its relative viability is 0.952.

Question: What about the relative viability ([11]; first compound 6.325 µM) of the same molecule?
Answer: Its relative viability is 0.963.

Question: What about the relative viability ([11]; first compound 20 µM) of the same molecule?
Answer: Its relative viability is 0.928.

Source: the supplement of paper PMC10307832
